Measurements as given in publication PMC7316778 (Nature Communications, 2020).
Values joined by “and” are separate entries in the source; they are usually repeats but may differ in a detail not shown here. Identical values can stand only once. Like-named read-outs stand apart in the source and are kept apart here.

Columns and labels:
FER^WT = FER^WT (Homo sapiens, UniProt P16591); test: In vitro TR-FRET kinase assay
FRAP1 (mTOR) = FRAP1 (mTOR) (Homo sapiens, UniProt P42345); test: SelectScreen kinase assay
Method: (§1) Selectivity profiling assays were performed by the Invitrogen SelectScreen™ Services. […] The concentration of ATP was selected to be equal to the KM, unless indicated otherwise.

MYO3A (MYO3 alpha) = MYO3A (MYO3 alpha) (Homo sapiens, UniProt Q8NEV4); test: SelectScreen kinase assay
Method: as §1

TEC = biological target: T1, TEC (Homo sapiens, UniProt P42680); test: SelectScreen kinase assay; settings: for Inhibition at 1 µM (%): LanthaScreen Binding
T1 sequence (P42680 1-631): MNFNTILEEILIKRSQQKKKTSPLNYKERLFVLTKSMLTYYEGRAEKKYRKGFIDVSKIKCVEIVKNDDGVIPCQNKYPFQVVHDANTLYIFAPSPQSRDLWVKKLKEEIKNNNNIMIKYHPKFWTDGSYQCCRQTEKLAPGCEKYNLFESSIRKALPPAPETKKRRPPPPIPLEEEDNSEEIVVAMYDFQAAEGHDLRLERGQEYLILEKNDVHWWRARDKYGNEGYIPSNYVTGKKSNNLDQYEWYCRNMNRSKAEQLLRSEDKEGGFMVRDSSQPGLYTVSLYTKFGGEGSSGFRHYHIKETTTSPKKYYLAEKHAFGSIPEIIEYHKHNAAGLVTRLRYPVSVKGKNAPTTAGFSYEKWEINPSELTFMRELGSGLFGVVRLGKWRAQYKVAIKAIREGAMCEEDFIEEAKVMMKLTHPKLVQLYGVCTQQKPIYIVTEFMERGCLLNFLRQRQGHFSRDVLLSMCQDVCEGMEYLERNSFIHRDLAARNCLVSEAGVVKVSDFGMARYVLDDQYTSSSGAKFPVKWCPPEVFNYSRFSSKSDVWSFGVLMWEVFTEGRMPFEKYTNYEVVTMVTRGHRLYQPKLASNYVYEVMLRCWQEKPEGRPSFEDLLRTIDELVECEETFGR
Method: as §1

STK25 (YSK1) = STK25 (YSK1) (Homo sapiens, UniProt O00506); test: SelectScreen kinase assay
Method: as §1

PRKCB2 (PKC beta II) = PRKCB2 (PKC beta II) (Homo sapiens, UniProt P05771); test: SelectScreen kinase assay; settings: 1 h, 1 μM WEL028, 1 h preincubation
Method: as §1

PTK6 (Brk) = PTK6 (Brk) (Homo sapiens, UniProt Q13882); test: SelectScreen kinase assay
Method: as §1

AURKA (Aurora A) = biological target: T2, AURKA (Aurora A) (Homo sapiens, UniProt O14965); test: SelectScreen kinase assay
T2 sequence (O14965 1-403): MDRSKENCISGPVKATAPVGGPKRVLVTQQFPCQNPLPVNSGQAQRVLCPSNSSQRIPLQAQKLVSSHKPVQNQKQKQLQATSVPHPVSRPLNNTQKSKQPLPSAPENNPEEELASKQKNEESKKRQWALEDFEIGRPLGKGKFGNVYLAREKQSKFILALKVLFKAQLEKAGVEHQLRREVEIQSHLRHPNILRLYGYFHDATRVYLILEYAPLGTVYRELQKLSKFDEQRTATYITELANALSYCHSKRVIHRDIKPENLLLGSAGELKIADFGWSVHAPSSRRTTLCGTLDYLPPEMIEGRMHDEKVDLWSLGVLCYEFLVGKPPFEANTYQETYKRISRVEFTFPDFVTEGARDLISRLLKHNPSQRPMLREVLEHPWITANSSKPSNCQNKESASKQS
Method: as §1

PRKCB1 (PKC beta I) = PRKCB1 (PKC beta I) (Homo sapiens, UniProt P05771); test: SelectScreen kinase assay
Method: as §1

MAP2K5 (MEK5) = biological target: T3, MAP2K5 (MEK5) (Homo sapiens, UniProt Q13163); test: SelectScreen kinase assay
T3 sequence (Q13163 1-448): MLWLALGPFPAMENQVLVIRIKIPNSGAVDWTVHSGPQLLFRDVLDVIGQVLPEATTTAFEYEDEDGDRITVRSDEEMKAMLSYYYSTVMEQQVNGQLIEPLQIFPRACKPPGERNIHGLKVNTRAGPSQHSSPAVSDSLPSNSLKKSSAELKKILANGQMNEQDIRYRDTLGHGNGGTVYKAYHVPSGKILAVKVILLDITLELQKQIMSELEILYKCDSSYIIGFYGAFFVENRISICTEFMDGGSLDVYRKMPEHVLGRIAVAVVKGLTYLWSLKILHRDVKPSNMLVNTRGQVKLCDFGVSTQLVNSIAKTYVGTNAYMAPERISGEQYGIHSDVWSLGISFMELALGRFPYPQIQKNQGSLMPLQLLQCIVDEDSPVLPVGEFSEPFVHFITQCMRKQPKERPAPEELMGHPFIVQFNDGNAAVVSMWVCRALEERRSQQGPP
Method: as §1

AKT3 (PKB gamma) = AKT3 (PKB gamma) (Homo sapiens, UniProt Q9Y243); test: SelectScreen kinase assay; settings: for Inhibition at 1 µM (%): AKT3 (PKB gamma), ZLYTE, ATP Km app
Method: as §1

CAMK2A (CaMKII alpha) = CAMK2A (CaMKII alpha) (Homo sapiens, UniProt Q9UQM7); test: SelectScreen kinase assay
Method: as §1

[1] = 1 h, 1 μM WEL028, 1 h preincubation

Sequence of AKT3 (PKB gamma) (Q9Y243 whole entry): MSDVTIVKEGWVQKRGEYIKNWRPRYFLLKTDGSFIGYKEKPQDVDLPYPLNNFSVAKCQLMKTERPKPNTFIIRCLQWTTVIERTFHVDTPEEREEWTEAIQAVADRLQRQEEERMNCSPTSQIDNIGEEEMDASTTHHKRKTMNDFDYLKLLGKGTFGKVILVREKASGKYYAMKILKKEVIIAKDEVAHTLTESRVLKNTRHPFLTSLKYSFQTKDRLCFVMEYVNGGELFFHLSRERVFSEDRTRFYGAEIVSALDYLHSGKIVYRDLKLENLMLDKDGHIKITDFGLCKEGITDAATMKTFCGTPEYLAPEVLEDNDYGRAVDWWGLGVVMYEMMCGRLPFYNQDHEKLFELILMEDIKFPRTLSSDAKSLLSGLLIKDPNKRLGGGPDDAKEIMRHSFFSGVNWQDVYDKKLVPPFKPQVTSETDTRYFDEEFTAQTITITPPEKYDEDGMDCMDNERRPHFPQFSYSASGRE
Sequence of PTK6 (Brk) (Q13882 whole entry): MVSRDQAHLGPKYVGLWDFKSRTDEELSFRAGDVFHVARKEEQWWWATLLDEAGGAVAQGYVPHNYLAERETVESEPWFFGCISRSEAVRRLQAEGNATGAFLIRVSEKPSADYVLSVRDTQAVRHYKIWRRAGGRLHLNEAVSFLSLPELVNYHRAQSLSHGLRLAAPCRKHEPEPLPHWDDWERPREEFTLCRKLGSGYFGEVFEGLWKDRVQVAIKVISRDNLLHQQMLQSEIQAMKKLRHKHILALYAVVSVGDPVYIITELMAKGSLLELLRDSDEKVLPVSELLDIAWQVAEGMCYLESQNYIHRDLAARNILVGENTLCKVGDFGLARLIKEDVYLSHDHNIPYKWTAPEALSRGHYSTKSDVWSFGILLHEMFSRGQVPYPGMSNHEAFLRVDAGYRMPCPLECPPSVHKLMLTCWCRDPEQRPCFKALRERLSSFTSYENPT
Sequence of MYO3A (MYO3 alpha) (Q8NEV4 whole entry): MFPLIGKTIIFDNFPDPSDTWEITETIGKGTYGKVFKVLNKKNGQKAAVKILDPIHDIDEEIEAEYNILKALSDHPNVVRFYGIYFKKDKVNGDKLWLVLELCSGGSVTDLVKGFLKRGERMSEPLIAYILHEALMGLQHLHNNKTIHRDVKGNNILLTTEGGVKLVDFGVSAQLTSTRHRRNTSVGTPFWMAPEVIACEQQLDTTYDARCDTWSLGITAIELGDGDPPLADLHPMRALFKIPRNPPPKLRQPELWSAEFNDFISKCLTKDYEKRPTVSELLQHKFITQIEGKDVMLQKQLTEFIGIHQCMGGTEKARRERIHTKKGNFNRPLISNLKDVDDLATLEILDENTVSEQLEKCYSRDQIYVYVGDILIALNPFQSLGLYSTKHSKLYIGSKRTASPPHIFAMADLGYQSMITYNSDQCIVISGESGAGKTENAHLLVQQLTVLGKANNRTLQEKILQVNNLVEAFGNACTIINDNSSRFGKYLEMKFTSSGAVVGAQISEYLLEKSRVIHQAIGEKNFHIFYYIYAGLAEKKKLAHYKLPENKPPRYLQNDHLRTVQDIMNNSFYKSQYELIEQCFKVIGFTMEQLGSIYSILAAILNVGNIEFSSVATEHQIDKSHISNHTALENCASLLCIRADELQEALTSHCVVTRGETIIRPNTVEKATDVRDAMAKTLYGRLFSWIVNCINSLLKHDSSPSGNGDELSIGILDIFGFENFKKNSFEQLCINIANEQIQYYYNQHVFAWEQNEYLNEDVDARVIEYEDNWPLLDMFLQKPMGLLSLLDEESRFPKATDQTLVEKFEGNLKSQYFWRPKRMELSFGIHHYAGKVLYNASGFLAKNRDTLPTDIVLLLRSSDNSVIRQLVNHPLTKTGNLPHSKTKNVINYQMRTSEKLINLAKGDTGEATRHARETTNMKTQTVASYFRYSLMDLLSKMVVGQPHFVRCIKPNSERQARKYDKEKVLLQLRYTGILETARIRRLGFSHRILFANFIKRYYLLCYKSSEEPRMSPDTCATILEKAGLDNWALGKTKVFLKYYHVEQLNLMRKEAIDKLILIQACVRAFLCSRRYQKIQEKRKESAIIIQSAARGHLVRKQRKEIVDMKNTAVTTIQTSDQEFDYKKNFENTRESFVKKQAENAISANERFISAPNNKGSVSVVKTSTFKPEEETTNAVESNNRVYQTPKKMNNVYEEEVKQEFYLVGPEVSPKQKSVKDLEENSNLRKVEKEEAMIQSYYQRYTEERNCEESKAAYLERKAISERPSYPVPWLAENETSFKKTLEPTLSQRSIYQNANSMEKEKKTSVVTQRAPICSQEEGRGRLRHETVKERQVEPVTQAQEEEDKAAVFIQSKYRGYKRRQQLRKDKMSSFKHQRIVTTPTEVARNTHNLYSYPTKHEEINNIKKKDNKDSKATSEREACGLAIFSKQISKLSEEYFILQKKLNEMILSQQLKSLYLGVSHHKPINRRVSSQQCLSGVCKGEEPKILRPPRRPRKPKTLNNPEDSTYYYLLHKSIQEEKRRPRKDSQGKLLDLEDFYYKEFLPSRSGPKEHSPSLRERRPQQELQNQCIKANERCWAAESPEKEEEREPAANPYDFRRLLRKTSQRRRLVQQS
Sequence of CAMK2A (CaMKII alpha) (Q9UQM7 whole entry): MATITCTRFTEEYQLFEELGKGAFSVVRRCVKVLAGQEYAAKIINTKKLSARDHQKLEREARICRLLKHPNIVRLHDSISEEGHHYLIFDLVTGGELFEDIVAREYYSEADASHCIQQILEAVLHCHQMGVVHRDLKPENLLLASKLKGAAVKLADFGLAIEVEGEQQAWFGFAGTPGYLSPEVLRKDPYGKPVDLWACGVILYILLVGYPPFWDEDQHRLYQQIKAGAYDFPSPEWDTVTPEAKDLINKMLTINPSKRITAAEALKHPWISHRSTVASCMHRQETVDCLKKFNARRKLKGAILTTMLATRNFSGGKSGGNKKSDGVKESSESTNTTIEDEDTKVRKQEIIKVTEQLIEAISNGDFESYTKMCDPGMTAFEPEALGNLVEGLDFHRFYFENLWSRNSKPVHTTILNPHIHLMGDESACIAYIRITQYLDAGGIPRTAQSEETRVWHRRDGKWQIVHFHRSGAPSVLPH
Sequence of PRKCB1 (PKC beta I) (P05771 whole entry): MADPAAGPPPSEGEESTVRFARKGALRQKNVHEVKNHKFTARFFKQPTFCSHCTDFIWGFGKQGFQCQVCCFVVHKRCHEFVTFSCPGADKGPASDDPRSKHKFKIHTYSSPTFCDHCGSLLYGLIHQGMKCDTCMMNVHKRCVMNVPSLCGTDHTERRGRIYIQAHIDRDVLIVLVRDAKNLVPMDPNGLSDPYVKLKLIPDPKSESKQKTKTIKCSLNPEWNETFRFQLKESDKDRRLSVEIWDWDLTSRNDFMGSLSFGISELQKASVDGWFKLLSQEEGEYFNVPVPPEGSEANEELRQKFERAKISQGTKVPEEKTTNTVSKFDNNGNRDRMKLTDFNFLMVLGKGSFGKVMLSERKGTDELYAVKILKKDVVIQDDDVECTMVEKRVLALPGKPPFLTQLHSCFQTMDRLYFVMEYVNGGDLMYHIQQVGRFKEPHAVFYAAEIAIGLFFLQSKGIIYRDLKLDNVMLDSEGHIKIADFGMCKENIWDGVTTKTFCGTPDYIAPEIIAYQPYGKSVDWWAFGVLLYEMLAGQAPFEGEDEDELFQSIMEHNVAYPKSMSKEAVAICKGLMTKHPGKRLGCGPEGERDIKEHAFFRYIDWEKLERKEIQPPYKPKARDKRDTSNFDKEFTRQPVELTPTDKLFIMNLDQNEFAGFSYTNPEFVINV
Sequence of STK25 (YSK1) (O00506 whole entry): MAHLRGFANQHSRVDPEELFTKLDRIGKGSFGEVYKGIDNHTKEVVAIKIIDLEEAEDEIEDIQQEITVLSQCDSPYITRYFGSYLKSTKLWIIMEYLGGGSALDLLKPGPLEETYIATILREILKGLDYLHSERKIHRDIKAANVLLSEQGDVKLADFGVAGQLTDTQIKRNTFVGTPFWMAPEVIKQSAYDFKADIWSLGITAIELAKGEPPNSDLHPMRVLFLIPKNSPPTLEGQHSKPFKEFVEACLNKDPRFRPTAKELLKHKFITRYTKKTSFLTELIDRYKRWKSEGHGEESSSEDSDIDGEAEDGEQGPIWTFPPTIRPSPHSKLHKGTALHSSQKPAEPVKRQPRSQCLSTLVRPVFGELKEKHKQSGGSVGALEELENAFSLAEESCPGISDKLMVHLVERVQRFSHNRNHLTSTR
Sequence of FER^WT (P16591 448-820): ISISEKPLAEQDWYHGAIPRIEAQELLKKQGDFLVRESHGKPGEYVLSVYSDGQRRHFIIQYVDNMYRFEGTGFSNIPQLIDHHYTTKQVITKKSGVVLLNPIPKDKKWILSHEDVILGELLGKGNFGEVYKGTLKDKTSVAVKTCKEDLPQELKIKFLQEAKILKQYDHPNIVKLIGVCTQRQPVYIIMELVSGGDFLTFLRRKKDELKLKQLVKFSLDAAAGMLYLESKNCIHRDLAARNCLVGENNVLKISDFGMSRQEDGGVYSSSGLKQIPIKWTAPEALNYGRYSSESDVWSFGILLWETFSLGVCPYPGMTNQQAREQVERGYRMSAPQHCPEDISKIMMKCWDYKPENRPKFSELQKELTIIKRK

C#CCOc1ccc(Nc2ncc(Cl)c(Nc3ccccc3NC(=O)C=C)n2)c(OC)c1 [Compound 6]
IC50 (FER^WT): 501 nM
inhibition at 1 µM (FRAP1 (mTOR); [1]): 11%
Inhibition at 1 µM (%) (FRAP1 (mTOR); FRAP1 (mTOR), 1 µM, ZLYTE, ATP Km app): 19%
inhibition at 1 µM (MYO3A (MYO3 alpha); [1]): 17%
Inhibition at 1 µM (%) (MYO3A (MYO3 alpha); MYO3A (MYO3 alpha), 1 µM, LanthaScreen Binding, listed as WEL028, 1 µM): 16%
inhibition at 1 µM (MYO3A (MYO3 alpha); read-out: Inhibition at 1 µM (%), MYO3A (MYO3 alpha), 1 µM, LanthaScreen Binding): 18%
Inhibition at 1 µM (%) (TEC): 2%
Inhibition at 1 µM (%) (TEC; listed as WEL028, 1 µM): 7%
inhibition at 1 µM (TEC; [1]): 5%
Inhibition at 1 µM (%) (STK25 (YSK1); 1 µM, ZLYTE, ATP Km app): 15%
inhibition at 1 µM (STK25 (YSK1); [1]): 5%
inhibition at 1 µM (PRKCB2 (PKC beta II)): 0%
Inhibition at 1 µM (%) (PTK6 (Brk); 1 µM, ZLYTE, ATP Km app, listed as WEL028, 1 µM): 29%
inhibition at 1 µM (PTK6 (Brk); [1]): 31%
inhibition at 1 µM (PTK6 (Brk); read-out: Inhibition at 1 µM (%), 1 µM, ZLYTE, ATP Km app): 33%
IC50 (AURKA (Aurora A)): 631 nM
inhibition at 1 µM (AURKA (Aurora A); [1]): 74%
inhibition at 10 µM (AURKA (Aurora A); 1 h, log[inhibitor] (M) -5.00, ZLYTE, ATP Km app): 100%
inhibition at 3.31 µM (AURKA (Aurora A); 1 h, log[inhibitor] (M) -5.48, ZLYTE, ATP Km app): 90%
inhibition at 1.12 µM (AURKA (Aurora A); 1 h, log[inhibitor] (M) -5.95, ZLYTE, ATP Km app): 69%
inhibition at 0.372 µM (AURKA (Aurora A); 1 h, log[inhibitor] (M) -6.43, ZLYTE, ATP Km app): 46%
inhibition at 0.123 µM (AURKA (Aurora A); 1 h, log[inhibitor] (M) -6.91, ZLYTE, ATP Km app): 28%
inhibition at 0.04074 µM (AURKA (Aurora A); 1 h, log[inhibitor] (M) -7.39, ZLYTE, ATP Km app): 16%
inhibition at 0.0138 µM (AURKA (Aurora A); 1 h, log[inhibitor] (M) -7.86, ZLYTE, ATP Km app): 8%
inhibition at 0.004571 µM (AURKA (Aurora A); 1 h, log[inhibitor] (M) -[…], ZLYTE, ATP Km app): 3%
Inhibition at 1 µM (%) (AURKA (Aurora A); AURKA (Aurora A), 1 µM, ZLYTE, ATP Km app, listed as WEL028, 1 µM): 70%
Apparent fold selectivity (AURKA (Aurora A); IC50 on that kinase divided by IC50 on FES^S700C): 155 fold
inhibition at 1 µM (AURKA (Aurora A); read-out: Inhibition at 1 µM (%), AURKA (Aurora A), 1 µM, ZLYTE, ATP Km app): 78%
inhibition at 1 µM (PRKCB1 (PKC beta I); [1]): 16%
Inhibition at 1 µM (%) (PRKCB1 (PKC beta I); PRKCB1 (PKC beta I), 1 µM, ZLYTE, ATP Km app): 25%
inhibition at 1 µM (MAP2K5 (MEK5); [1]): 53%
Inhibition at 1 µM (%) (MAP2K5 (MEK5); MAP2K5 (MEK5), 1 µM, LanthaScreen Binding, listed as WEL028, 1 µM): 52%
inhibition at 1 µM (MAP2K5 (MEK5); read-out: Inhibition at 1 µM (%), MAP2K5 (MEK5), 1 µM, LanthaScreen Binding): 53%
inhibition at 1 µM (AKT3 (PKB gamma); [1]): 1%
Inhibition at 1 µM (%) (AKT3 (PKB gamma)): 3%
Inhibition at 1 µM (%) (AKT3 (PKB gamma); listed as WEL028, 1 µM): 0%
inhibition at 1 µM (CAMK2A (CaMKII alpha); [1]): -6%
Inhibition at 1 µM (%) (CAMK2A (CaMKII alpha); CAMK2A (CaMKII alpha), 1 µM, ZLYTE, ATP Km app, listed as WEL028, 1 µM): -7% and -5%
